Results reported in ChEMBL document CHEMBL1201862, “PubChem BioAssay data set” (2004).
Calls of active or inactive are those of the source.

Legend:
[1] = system: Streptococcus sp. 'group A'; test: growth inhibition of control SK(-) GAS strain, dose response, counter-screen for streptokinase expression inhibitor project, luminescence, kanamycin, BacTiterGlo, confirmation (AID 1900); assay type: functional, organism-based
[2] = microbe, parasite or virus in culture; assay type: functional; settings: Mycobacterium tuberculosis
Streptococcus = test: Group A Streptococcus viability loss, dose response, counter-screen for streptokinase expression inhibitor project, luminescence, BacTiterGlo (AID 1915); assay type: functional, organism-based;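 further: potency for reduction of bacterial viability or growth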
[3] = HEp-2 cell cytotoxicity, dose response, cytotoxicity control for RSV inhibitor project, HTS (AID 2410); assay type: functional; settings: human respiratory syncytial virus
Streptokinase A = molecular target: T1, Streptokinase A (Streptococcus pyogenes serotype M1, UniProt P10520); test: S. pyogenes streptokinase expression inhibitors, potency, dose response, plasminogen activation absorbance, OD405 (AID 1914); assay type: functional, Streptococcus pyogenes M1 GAS;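 further: secreted streptokinase activity via plasminogen activation per viability signal from cell pellet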
T1 sequence (P10520 whole entry): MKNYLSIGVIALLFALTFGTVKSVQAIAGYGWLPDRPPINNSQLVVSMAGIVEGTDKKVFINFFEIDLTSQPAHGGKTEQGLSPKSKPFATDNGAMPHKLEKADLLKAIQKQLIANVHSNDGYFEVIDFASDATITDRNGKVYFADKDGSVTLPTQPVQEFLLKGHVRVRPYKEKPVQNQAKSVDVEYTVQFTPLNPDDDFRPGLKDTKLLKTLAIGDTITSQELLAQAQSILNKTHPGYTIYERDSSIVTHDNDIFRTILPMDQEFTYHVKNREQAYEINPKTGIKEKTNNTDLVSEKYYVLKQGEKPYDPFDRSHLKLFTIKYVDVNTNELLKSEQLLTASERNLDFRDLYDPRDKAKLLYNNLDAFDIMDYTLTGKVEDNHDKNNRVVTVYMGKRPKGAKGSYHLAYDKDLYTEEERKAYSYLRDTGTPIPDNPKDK

CAAX prenyl protease 2 = molecular target: T2, CAAX prenyl protease 2 (Saccharomyces cerevisiae S288c, UniProt Q03530); assay type: biochemical
T2 sequence (Q03530 whole entry): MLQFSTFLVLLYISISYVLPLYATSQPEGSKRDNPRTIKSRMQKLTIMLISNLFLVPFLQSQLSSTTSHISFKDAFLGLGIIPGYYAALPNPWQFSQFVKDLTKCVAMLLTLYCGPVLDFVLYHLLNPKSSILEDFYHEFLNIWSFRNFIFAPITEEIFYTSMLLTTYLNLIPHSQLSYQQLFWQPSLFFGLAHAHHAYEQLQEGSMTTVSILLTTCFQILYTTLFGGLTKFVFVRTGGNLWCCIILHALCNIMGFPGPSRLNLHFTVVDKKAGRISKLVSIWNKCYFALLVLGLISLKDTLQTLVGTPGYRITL

[4] = molecular target: G-protein coupled receptor 55 (Homo sapiens, UniProt Q9Y2T6); test: GPR55 antagonists blocking LPI-driven arrestin recruitment, primary screen, imaging, U2OS, beta-arrestin-GFP, LPI agonist (AID 2013); assay type: functional;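 further: antagonist potency measured as reduced agonist-driven arrestin aggregation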
Estrogen receptor beta = Estrogen receptor beta (Homo sapiens, UniProt Q92731); test: ERβ–SRC-3 coactivator interaction inhibitors, confirmation, orthogonal assay, biochemical, ELISA, streptavidin-HRP readout (AID 1060)
[5] = HepG2 cell cytotoxicity, dose response, cytotoxicity control, cherry-picked samples (AID 1159577); assay type: functional, cell-based
[6] = P. falciparum Dd2 growth inhibitors, dose response, SYBR Green, cherry-picked samples (AID 1159567); assay type: functional, cell-based
[7] = Luminescence Cell-Based Dose Response to Identify Activators of 5'UTR Stem-Loop Driven Prion Protein mRNA Translation in H4-C Neuroglioblastoma Cells. [Related pubchem assays: 1829 (Project Summary), 1814 (Primary HTS)]; assay type: functional
[8] = Luminescence Cell-Based Dose Response to Identify Activators of Luciferase Translation or Activity in H4-C Neuroglioblastoma Cells. [Related pubchem assays: 1829 (Project Summary), 1814 (Primary HTS)]; assay type: functional
[9] = Luminescence Cell-Based Dose Response HTS to Identify Activators of Luciferase Translation or Activity in H4 […] Cells. [Related pubchem assays: 1829 (Project Summary), 1814 (Primary HTS)]; assay type: functional
[10] = Luminescence Cell-Based Dose Confirmation to Identify Activators of 5'UTR Stem-Loop Driven Alpha-Synuclein mRNA Translation in H4 Neuroglioblastoma Cells. [Related pubchem assays: 1829 (Project Summary), 1814 (Primary HTS)]; assay type: functional
[11] = P. falciparum 3D7-ScDHODH growth inhibitors, dose response, SYBR Green, dry powder samples (AID 1159570); assay type: functional, cell-based;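 further: parasite growth measured after 72 hours of compound exposure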
[12] = P. falciparum ATP4 D1247Y mutant growth inhibitors, dose response, NITD609-resistant line, SYBR Green, dry powder (AID 1159571); assay type: functional, cell-based;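 further: parasites synchronized at ring stage by sorbitol before testing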
[13] = P. falciparum Dd2 growth inhibitors, dose response, SYBR Green, dry powder samples (AID 1159566); assay type: functional, cell-based;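 further: potency for growth inhibition with lower SYBR green DNA signal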
Vero = test: cells; assay type: functional; settings: Chlorocebus sabaeus
Melanocortin receptor 4 = Melanocortin receptor 4 (Homo sapiens, UniProt P32245); test: MC4R antagonist potency on cAMP, dose response, cell-based, TR-FRET, biased antagonists (AID 602298); assay type: functional;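 further: antagonist potency against agonist-stimulated cAMP production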
[14] = nonselective inhibitors of cellular cAMP signaling, dose response, counter-screen for MC4R biased antagonist project, cell-based, TR-FRET cAMP detection (AID 602305); assay type: functional;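 further: U2OS cells stimulated with forskolin near its EC80 as the cAMP inducer; potency is for inhibition of forskolin-stimulated cAMP signaling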
[15] = Luminescence-based counterscreen assay for KLF5 inhibitors: dose response cell-based high throughput screening assay to identify cytotoxic compounds using the IEC-6 intestinal epithelial cell line. [Related pubchem assays: 1700 (Primary screen.), 1834 (Confirmation screen.), 1858 (Summary AID.), 1905 (Counterscreen.)]; assay type: functional
Fatty acid synthase [16] = molecular target: T3, Fatty acid synthase (Homo sapiens, UniProt P49327); test: FAS thioesterase domain inhibitors, dose response, biochemical, endpoint fluorescence intensity, uHTS hits (AID 624327); assay type: functional;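 further: fluorescence from hydrolysis of an O-methyl fluorescein acyl ester substrate by the enzyme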
Fatty acid synthase [17] = molecular target: T3, Fatty acid synthase; test: FAS thioesterase domain inhibitors, dose response, biochemical, kinetic fluorescence intensity (AID 624326); assay type: functional;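 further: rate of fluorescence rise from hydrolysis of a fluorogenic O-methyl fluorescein ester substrate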
cells [18] = assay type: functional, cell-based
cells [19] = assay type: functional, cell-based; remark: listed apart in the source
Nonstructural protein 1 = Nonstructural protein 1 (Influenza A virus, UniProt Q194T2); assay type: functional, Influenza A virus (A/California/07/2009(H1N1))
[20] = Luminescence Cell-Based Dose Confirmation HTS to Identify Activators of 5'UTR Stem-Loop Driven Alpha-Synuclein mRNA Translation in H4 Neuroglioblastoma Cells. [Related pubchem assays: 1829 (Project Summary), 1814 (Primary HTS)]; assay type: functional
H4 = test: Luminescence Cell-Based Dose Response HTS to Identify Activators of 5'UTR Stem-Loop Driven Prion Protein mRNA Translation in H4 Neuroglioblastoma Cells. [Related pubchem assays: 1829 (Project Summary), 1814 (Primary HTS)]; assay type: functional; settings: Homo sapiens
[21] = inhibitors of intracellular T. cruzi replication, confirmation, NIH3T3 host cells, beta-gal luminescence (AID 2044); assay type: functional, cell-based;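 further: intracellular parasites grown in NIH/3T3 mouse fibroblasts as host cells; luminescent beta-galactosidase reporter signal from transgenic T. cruzi replicating inside host cells; inhibitors lower the luminescence signal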
[22] = cytotoxicity toward NIH3T3 fibroblasts, dose response, counter-screen, cell-based, ATP luminescence, mouse fibroblasts (AID 2010); assay type: functional;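 further: cells exposed to compound for about 90 hours before reading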
[23] = molecular target: T4, Ubiquitin-conjugating enzyme E2 N (Homo sapiens, UniProt P61088); assay type: functional;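 further: Dose-response confirmation in a TR-FRET assay detecting UBC13-driven polyubiquitin chain formation, inhibition measured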
T4 sequence (P61088 whole entry): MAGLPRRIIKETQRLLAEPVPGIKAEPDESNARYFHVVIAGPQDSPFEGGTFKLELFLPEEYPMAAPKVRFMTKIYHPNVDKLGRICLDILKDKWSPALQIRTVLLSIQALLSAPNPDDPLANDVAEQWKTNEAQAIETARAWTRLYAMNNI

[24] = molecular target: T5, RNA-binding protein pos-1 (Caenorhabditis elegans, UniProt G5EF15); test: inhibitors of POS-1/mex-3 RNA binding, dose response, biochemical, fluorescence polarization (AID 1964);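 further: purified POS-1 fused to maltose binding protein made in E. coli; potency of compounds blocking POS-1 binding to fluorescent RNA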
T5 sequence (G5EF15 whole entry): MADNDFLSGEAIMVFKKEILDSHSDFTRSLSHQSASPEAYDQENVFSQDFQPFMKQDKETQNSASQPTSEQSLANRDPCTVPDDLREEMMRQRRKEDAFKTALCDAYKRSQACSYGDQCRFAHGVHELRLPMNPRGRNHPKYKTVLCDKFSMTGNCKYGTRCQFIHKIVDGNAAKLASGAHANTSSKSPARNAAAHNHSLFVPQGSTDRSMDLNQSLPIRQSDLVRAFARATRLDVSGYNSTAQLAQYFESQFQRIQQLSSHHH

[25] = molecular target: T6, Zinc finger protein mex-5 (Caenorhabditis elegans, UniProt Q9XUB2); test: MEX-5/TCR-2 RNA interaction inhibitors, dose response, biochemical, C. elegans, fluorescence polarization (AID 1960)
T6 sequence (Q9XUB2 whole entry): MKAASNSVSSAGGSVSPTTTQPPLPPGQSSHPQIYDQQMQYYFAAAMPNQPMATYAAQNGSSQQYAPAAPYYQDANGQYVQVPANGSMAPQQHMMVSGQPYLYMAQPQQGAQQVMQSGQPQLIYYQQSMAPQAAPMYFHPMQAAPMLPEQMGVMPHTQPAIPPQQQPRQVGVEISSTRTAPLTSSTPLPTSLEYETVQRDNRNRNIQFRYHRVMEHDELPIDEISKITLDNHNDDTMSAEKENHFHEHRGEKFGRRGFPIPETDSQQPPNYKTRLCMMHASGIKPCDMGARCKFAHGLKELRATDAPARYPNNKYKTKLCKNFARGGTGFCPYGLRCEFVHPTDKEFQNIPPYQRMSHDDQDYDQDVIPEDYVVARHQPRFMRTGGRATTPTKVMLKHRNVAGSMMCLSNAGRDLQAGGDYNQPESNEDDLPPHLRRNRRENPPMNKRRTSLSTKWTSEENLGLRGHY

Chain of G-protein coupled receptor 55 (Q9Y2T6 whole entry): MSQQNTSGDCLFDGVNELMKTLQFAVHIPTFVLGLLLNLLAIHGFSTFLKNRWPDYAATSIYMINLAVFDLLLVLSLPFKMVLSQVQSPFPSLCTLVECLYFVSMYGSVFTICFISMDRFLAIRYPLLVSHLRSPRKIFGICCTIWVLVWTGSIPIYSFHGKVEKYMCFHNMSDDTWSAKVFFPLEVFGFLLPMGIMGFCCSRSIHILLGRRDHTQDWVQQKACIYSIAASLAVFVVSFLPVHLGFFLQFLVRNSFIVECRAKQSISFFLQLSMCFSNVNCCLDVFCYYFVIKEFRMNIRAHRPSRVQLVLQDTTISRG
Chain of Melanocortin receptor 4 (P32245 whole entry): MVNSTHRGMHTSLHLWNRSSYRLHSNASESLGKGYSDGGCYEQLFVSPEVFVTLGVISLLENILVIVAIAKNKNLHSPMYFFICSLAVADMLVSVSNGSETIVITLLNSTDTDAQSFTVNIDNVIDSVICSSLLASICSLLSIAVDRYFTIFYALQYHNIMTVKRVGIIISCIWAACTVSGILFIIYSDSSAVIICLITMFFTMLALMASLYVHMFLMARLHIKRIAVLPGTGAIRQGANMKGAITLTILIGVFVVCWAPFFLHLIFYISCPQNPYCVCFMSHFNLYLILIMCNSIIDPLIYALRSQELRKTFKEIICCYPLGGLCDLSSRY
T3 sequence (P49327 whole entry, the tested form may be a part): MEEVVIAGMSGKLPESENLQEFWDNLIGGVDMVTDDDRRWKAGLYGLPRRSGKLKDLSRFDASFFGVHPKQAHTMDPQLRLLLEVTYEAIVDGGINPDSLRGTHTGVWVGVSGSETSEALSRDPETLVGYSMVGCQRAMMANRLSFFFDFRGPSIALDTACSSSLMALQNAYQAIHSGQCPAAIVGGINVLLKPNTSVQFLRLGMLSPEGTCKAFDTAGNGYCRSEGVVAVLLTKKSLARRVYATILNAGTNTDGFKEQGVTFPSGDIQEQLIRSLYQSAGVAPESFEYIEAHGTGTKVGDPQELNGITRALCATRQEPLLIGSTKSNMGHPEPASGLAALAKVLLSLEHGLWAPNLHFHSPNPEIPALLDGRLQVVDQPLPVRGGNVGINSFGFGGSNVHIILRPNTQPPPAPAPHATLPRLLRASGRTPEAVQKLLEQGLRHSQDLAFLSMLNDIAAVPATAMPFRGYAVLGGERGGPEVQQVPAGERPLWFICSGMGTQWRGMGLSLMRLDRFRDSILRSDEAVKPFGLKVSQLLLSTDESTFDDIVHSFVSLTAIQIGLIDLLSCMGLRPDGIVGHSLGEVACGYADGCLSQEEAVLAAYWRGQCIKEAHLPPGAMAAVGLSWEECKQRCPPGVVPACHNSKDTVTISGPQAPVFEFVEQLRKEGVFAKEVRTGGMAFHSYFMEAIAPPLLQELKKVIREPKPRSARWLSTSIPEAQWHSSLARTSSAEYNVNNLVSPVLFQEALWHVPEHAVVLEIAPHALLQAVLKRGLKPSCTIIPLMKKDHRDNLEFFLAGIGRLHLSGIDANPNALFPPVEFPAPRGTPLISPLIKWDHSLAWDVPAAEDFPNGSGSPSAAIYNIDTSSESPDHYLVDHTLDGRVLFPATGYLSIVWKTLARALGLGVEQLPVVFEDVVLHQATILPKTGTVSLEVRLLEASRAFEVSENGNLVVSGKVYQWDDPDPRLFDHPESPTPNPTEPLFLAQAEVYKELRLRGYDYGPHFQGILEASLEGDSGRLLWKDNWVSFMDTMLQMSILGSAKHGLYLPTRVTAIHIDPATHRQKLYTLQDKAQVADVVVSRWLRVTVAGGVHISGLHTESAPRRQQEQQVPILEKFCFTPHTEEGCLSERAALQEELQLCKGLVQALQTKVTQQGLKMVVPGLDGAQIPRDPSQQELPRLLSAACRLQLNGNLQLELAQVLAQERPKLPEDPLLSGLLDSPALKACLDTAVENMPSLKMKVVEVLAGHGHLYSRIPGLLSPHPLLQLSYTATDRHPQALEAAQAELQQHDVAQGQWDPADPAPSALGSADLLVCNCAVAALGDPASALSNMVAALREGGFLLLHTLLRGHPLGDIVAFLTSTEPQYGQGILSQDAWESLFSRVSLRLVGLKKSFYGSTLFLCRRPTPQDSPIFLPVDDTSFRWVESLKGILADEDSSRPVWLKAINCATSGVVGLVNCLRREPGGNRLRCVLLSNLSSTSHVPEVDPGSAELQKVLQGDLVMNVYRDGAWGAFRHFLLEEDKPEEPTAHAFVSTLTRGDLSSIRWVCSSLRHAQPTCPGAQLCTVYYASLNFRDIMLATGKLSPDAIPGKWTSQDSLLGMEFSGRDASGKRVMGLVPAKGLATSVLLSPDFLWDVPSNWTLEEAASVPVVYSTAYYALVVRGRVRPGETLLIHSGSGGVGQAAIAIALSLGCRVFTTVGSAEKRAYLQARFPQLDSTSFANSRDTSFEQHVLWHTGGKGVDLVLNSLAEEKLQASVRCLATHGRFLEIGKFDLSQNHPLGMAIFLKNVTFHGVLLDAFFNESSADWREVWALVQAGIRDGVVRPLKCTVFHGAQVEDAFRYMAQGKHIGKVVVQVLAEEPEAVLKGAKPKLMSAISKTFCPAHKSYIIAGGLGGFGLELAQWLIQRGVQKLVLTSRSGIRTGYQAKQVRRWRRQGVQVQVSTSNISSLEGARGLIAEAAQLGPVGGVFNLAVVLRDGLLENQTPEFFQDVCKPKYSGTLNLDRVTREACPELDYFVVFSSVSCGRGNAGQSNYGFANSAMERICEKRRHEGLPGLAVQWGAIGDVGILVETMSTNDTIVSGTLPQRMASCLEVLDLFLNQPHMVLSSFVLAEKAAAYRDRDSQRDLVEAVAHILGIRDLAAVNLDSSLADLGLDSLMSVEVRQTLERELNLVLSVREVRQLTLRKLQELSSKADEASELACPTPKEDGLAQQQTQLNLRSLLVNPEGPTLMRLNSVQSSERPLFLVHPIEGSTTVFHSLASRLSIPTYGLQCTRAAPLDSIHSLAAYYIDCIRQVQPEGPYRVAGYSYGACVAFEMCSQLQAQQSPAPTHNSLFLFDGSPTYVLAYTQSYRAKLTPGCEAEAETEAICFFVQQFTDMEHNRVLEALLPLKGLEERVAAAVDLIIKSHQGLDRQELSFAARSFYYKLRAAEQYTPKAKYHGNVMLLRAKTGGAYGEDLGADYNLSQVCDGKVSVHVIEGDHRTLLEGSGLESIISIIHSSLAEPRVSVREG
Chain of Nonstructural protein 1 (Q194T2 whole entry): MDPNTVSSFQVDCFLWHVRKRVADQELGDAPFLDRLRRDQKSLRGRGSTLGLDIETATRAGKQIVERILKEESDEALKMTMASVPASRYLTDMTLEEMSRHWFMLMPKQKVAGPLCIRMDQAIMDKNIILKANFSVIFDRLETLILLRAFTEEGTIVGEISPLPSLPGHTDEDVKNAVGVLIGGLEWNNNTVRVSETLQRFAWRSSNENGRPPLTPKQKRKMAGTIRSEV
Chain of Estrogen receptor beta (Q92731 whole entry): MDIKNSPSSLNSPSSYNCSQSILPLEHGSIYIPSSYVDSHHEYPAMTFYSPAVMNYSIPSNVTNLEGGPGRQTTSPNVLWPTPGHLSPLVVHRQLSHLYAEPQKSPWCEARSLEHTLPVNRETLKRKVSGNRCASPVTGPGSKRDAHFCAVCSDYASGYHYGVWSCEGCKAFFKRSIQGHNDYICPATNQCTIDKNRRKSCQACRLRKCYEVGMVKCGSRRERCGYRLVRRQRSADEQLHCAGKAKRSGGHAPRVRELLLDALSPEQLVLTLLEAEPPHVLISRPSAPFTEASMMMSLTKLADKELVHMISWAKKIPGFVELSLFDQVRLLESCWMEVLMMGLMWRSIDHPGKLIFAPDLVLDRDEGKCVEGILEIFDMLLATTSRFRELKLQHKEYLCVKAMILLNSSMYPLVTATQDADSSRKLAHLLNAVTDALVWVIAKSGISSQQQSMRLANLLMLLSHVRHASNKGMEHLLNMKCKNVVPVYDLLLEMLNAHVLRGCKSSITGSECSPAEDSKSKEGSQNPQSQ

## Cn1cnnc1SCc1ccc(C(=O)N=Nc2c(O)n(Cc3ccc(Cl)cc3)c3ccccc23)cc1
[1]
  EC50: 3.12 µM (active)
[2]
  CC50: 21.2 µM (active)
Streptococcus
  EC50: > 150 µM (not active)
[3]
  CC50: 16.5 µM (active)
Streptokinase A
  EC50: 18 µM (inconclusive)

## CN(C)c1cc(O)c(C(S)=Nc2ccccc2)c(N(C)C)c1
CAAX prenyl protease 2
  AC50: 52.2 µM (active)

## O=C(NC(=S)Nc1ccccc1N1CCOCC1)c1ccc(Br)cc1
[4]
  IC50: 1.08 µM (active)

## CCCc1cc(O)nc(SCC(=O)Nc2ccc(C(=O)OC)cc2)n1
Estrogen receptor beta
  IC50: > 50 µM (not active)

## COc1ccc2c3c([nH]c2c1)[C@H](CO)N(Cc1ccncc1)CC31CCN(Cc2ccc(-c3ccccn3)cc2)CC1
[5]
  AC50: 17.6 µM (active)
[6]
  AC50: 0.973 µM (active)

## O=C(Nc1ncc(Cc2ccccc2)s1)C1COc2ccccc2O1 (stereo unspecified)
[7]
  EC50: 0.179 µM (active)
[8]
  EC50: 11.4 µM (active)
[9]
  EC50: < 0.1 µM (active)
[10]
  EC50: 0.465 µM (active)

## C[C@H](CO)N1C[C@H](C)[C@@H](CN(C)Cc2ccc3c(c2)OCO3)Oc2ccc(NC(=O)Nc3ccc(C(F)(F)F)cc3)cc2CC1=O
[11]
  AC50: 0.954 µM (active)
[12]
  AC50: 0.852 µM (active)
[13]
  AC50: 0.94 µM (active)
[5]
  AC50: > 39 µM (inactive)
[6]
  AC50: 1.14 µM (active)

## CCC1(c2ccccc2)ON(c2c(Br)cccc2Br)C1=O (stereo unspecified)
Vero
  CC50: > 25 µM (active)
[2]
  CC50: 21.4 µM (active)

## C[C@@H]1CN([C@@H](C)CO)C(=O)Cc2cc(NC(=O)Nc3ccc(C(F)(F)F)cc3)ccc2O[C@H]1CN(C)CC1CCCCC1
[5]
  AC50: 10.4 µM (active)
[6]
  AC50: 1.35 µM (active)

## O=C(Nc1ccccc1-c1nc2ccccc2[nH]1)c1ccc(N2C(=O)CCC2=O)cc1
Melanocortin receptor 4
  IC50: > 21.5 µM (inactive)
CAAX prenyl protease 2
  AC50: 75.6 µM (active)
[14]
  IC50: > 64.6 µM (inactive)

## N#CC1=C2N=C(N)c3ccccc3N2C2=C(C(=O)CCC2)C1c1cccc(Cl)c1 (stereo unspecified)
[4]
  IC50: 8.48 µM (active)

## CCOC(=O)c1sc(NC(=O)c2ccc3ncsc3c2)nc1C
[15]
  IC50: > 39.8 µM (not active)

## CC(C)(CNC(=O)c1ccc([N+](=O)[O-])c(Cl)c1)CNC(=O)c1ccc([N+](=O)[O-])c(Cl)c1
Fatty acid synthase [16]
  IC50: 5.44 µM (active)
[4]
  IC50: 3.11 µM (active)
Fatty acid synthase [17]
  IC50: 6.06 µM (active)
Melanocortin receptor 4
  IC50: > 64.6 µM (inactive)
[14]
  IC50: > 64.6 µM (inactive)

## Cc1ccc(C(=O)N/N=C/c2cc(Br)ccc2O)cn1
Cells [18]
  EC50: > 350 µM (not active)
Cells [19]
  EC50: 16.1 µM (active)
[15]
  IC50: 5.56 µM (active)
Nonstructural protein 1
  IC50: 12.3 µM (active)
[1]
  EC50: 3.17 µM (active)
Streptococcus
  EC50: 5.99 µM (active)

## CN1CCN(Cc2c(C(=O)N/N=C/c3cccc(Br)c3)nnn2-c2nonc2N)CC1
Vero
  CC50: 10.1 µM (active)
CAAX prenyl protease 2
  AC50: 2.08 µM (active)

## C/C(=N\OC(=O)c1ccc(F)cc1)c1sc(-c2ccc(Cl)cc2)nc1C
[7]
  EC50: 0.301 µM (active)
[8]
  EC50: 0.37 µM (active)
[9]
  EC50: 0.122 µM (active)
[20]
  EC50: < 0.1 µM (active)
H4
  EC50: < 0.1 µM (active)
[10]
  EC50: 0.236 µM (active)

## COc1ccc(C2c3[nH]c4ccccc4c3CCN2Cc2cccn2-c2ncccn2)cc1C (stereo unspecified)
[21]
  EC50: 1.28 µM (active)
[2]
  CC50: > 40 µM (active)
[22]
  EC50: > 60 µM (inconclusive)

## CCOC(=O)c1c(C(C)(C)C)oc2ccc(O)cc12
[23]
  IC50: > 20 µM (inactive)
[4]
  IC50: 4.47 µM (active)

## c1ccc(-c2nnc(-c3ccccn3)nn2)nc1
[24]
  EC50: > 300 µM (not active)
[25]
  EC50: 49.8 µM (inconclusive)
Nonstructural protein 1
  IC50: 12.6 µM (active)
[2]
  CC50: 34.2 µM (active)
